The star is where a group is joined. Palmitoyl = CCCCCCCCCCCCCCCC(=O)*
What follows are substances tested on type I collagen (assay: Determination of collagen biosynthesis (type I collagen ELISA), single peptides and mixture, Example 10). Conditions: 20, 40 and 80 μg/ml, 72 hours; ELISA O.D. 450 nm; vs untreated cells.
Type: cell-based, human
Protocol: Human Dermal Fibroblasts (ATCC PCS-201-012) were seeded in 96-well plates (3000 cells per well), and left to grow in DMEM containing 5% fetal bovine serum (FBS) for 48 hours. The medium was then replaced with fresh medium containing 0.1% FBS and the corresponding treatment for determining collagen production. After the incubation with each of the peptides (1, 2, and 3) and the mixture of peptides 1-3 synthesized in Example 1, at different concentrations (20, 40 and 80 μg/ml) of each peptide dissolved in DMEM medium in an equivalent proportion of each of them in the mixture (1:1:1 w/w/w), for a period of 72 hours, the same amounts of supernatant were added to a plate coated with human type I collagen antibody (commercial rabbit polyclonal antibodies against human collagen I, code A03C0377, provided by Bluegene Biotech Co. Ltd). The plate was incubated at room temperature for 2 hours to allow the antibody and the produced collagen to react with one another. The plate was then washed three times with PBS containing 0.5% Tween 20 for removing the remaining unbound sample. Next, a human antibody which recognizes the biotin-labeled type I collagen was added for 1 hour. After washing the plate with phosphate buffered saline (PBS) containing 0.5% Tween 20 for removing non-specific interactions, streptavidin-horseradish peroxidase (HRP) (St Louis, Sigma) was added. The amount of collagen in each well was determined using tetramethylbenzidine (TMB) (St Louis, Sigma) as the substrate for the HRP. The reaction between the HRP and TMB was stopped by adding 1 N HCl, and the O.D. (optical density) was measured at 450 nm. The untreated cells represented the negative control of the experiment.
For “Palm-RGDGANPNAAG-NH2 (Palmitoyl-RGDGANPNAAG-NH2; SMILES CCCCCCCCCCCCCCCC(=O)N[C@@H](CCCNC(=N)N)C(=O)NCC(=O)N[C@@H](CC(=O)O)C(=O)NCC(=O)N[C@@H](C)C(=O)N[C@@H](CC(N)=O)C(=O)N1CCC[C@H]1C(=O)N[C@@H](CC(N)=O)C(=O)N[C@@H](C)C(=O)N[C@@H](C)C(=O)NCC(N)=O) [Peptide 1]”, the “induction of type I collagen” value was “capable of inducing type I collagen production”. With “Palm-WRFQWQFEQ-NH2 (Palmitoyl-WRFQWQFEQ-NH2; SMILES CCCCCCCCCCCCCCCC(=O)N[C@@H](Cc1c[nH]c2ccccc12)C(=O)N[C@@H](CCCNC(=N)N)C(=O)N[C@@H](Cc1ccccc1)C(=O)N[C@@H](CCC(N)=O)C(=O)N[C@@H](Cc1c[nH]c2ccccc12)C(=O)N[C@@H](CCC(N)=O)C(=O)N[C@@H](Cc1ccccc1)C(=O)N[C@@H](CCC(=O)O)C(=O)N[C@@H](CCC(N)=O)C(N)=O) [Peptide 3]” the “induction of type I collagen” value was “capable of inducing type I collagen production”. “Palm-RGDGPQGPQ-NH2 (Palmitoyl-RGDGPQGPQ-NH2; SMILES CCCCCCCCCCCCCCCC(=O)N[C@@H](CCCNC(=N)N)C(=O)NCC(=O)N[C@@H](CC(=O)O)C(=O)NCC(=O)N1CCC[C@H]1C(=O)N[C@@H](CCC(N)=O)C(=O)NCC(=O)N1CCC[C@H]1C(=O)N[C@@H](CCC(N)=O)C(N)=O) [Peptide 2]” was tested, and the “induction of type I collagen” value was “capable of inducing type I collagen production”.

Source: patent US9932368B2, “Peptides for the stimulation of collagen formation” (INFINITEC ACTIVOS S.L, priority 2013, dated 2018)
